SMILES strings stand for the structures.

The record followed here is patent EP1038880B1, “Androstanes and pregnanes for allosteric modulation of GABA receptor” (priority 1994, dated 1995).

Test [1] relates to metrazol induced convulsions. The test is described as follows: animal or person. It counts as in vivo, mice. The conditions noted are these: Mus musculus; metrazol 85 mg/kg s.c., steroids i.p., mice.
The target in another test is GR complex. The test is described as follows: [35S]TBPS binding assay (inhibition of [35S]TBPS binding, cerebral cortex P2 homogenate). Also noted: species or system rat. The conditions noted are these: for IC50: 2 nM [35S]TBPS, rat cerebral cortex P2 homogenate; for IMAX: maximum inhibition of [35S]TBPS binding. In a few lines:
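Rat (male Sprague-Dawley) cortical P2 homogenate (0.5 mg protein) in 50 mM Na/K phosphate pH 7.4, 200 mM NaCl, incubated with 2 nM [35S]TBPS plus steroid test compounds (DMSO) in presence of GABA plus (+)bicuculline, 25°C, 90 min. Filtration, scintillation counting; nonspecific binding defined with […].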

A further test concerns strychnine. The test is described as follows: Anticonvulsant test against strychnine. It is filed as in vivo, mice. To be noted: Mus musculus, read-out: ED50 STR. The protocol: (§1) The anticonvulsant tests are similar to that described above. […] The number of animals with tonic and/or clonic convulsions was recorded. In the maximal electroshock test, 50 mA of current at 60 Hz was delivered through corneal electrodes for 200 msec to induce tonic seizure. The ability of compounds to abolish the tonic component was defined as the endpoint. General CNS depression potential was determined by a rotorod test 10 minutes after the injection of compounds where the number of mice staying on a rotating (6 rpm) rod for 1 minute in one of the three trials was determined. […] Table 7. Anticonvulsant Activity of Exemplified Neuroactive Steroids and those of Selected Clinically Useful Anticonvulsants in Mice

Test [2] concerns Bovine Uteral Progesterone Receptors. The test is described as follows: Inhibition of 3H-progesterone binding, uterus cytosol. To be noted: competitor 10^-6M; 3H-progesterone 0.15 nM. Summed up: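 Rat uterus cytosol was incubated with 0.15 nM ^3H-progesterone plus test compounds. Values are percent inhibition of specific binding versus a compound-free control incubation.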
In a further test the test system is (+)bicuculline. The test is described as follows: Anticonvulsant test against (+)bicuculline. It counts as in vivo, mice. To be noted: Mus musculus, read-out: ED50 BIC. As for the experimental part:
as §1

The next test has as its system tonic seizure. The test can be described thus: Maximal electroshock test. To be noted: Mus musculus, ip, steroids i.p., mice. It counts as in vivo. As for the experimental part:
as §1

One may read the ED50 as the dose that gives a 50% effect, or the effect in half of the subjects. As usually defined, the IC50 is the point on the concentration scale where inhibition reaches its midpoint. Low values mean greater potency in that assay, high ones weaker potency in that assay. On to `CC(=O)[C@H]1CC[C@H]2[C@@H]3CC[C@H]4C[C@H](O)CC[C@]4(C)[C@H]3CC[C@]12C` [3α-Hydroxy-5α-pregnan-20-one, 3α-hydroxy-5α-pregnan-20-one], for which the ED50 in test [1] was 4.9 mg/kg; with strychnine, more than 300 mg/kg; in the test on (+)bicuculline it was 12.3 mg/kg; in the test with tonic seizure, 28.6 mg/kg. At GR complex, this compound returned an IC50 of 37 nM. The compound further showed an IMAX with GR complex of 95%. Also, the “% of Inhibition” value in test [2] worked out at 14%.
Regarding `C[C@]12CC[C@@H](O)C[C@@H]1CC[C@@H]1[C@@H]2CC[C@]2(C)[C@@H](C(=O)CO)CC[C@@H]12` [3α,21-dihydroxy-5α-pregnan-20-one], the ED50 was 8.1 mg/kg in test [1], more than 300 mg/kg with strychnine, 17.8 mg/kg in the test with (+)bicuculline and 26.7 mg/kg in the test on tonic seizure. On GR complex, this compound displayed an IC50 of 76 nM. In addition, the IMAX in the test with GR complex was found to be 100%. For the same compound, the “% of Inhibition” value in test [2] is listed as 13%.
